Reference: patent US10471048B2, “Thienopyridine derivative for the treatment of hepatitis C infections” (Cipla (UK) Limited, priority 2015, dated 2019)
pEC50: −log10 of the molar value.

Columns and labels:
HCV GT1b CON-1 replicon = assay: HCV replicon assay (antiviral activity); format: cell-based, Hepatitis C virus; conditions: In vitro HCV replicon assay
From the text: The HCV replicon antiviral evaluation assay examines the effects of compound at six serial dilutions. Human interferon alpha-2b (rIFNα-2b) and Sofosbuvir are included in each run as a positive control compound.

[1] = tested on: cell culture-derived HCV (HCVcc); assay: microbe, parasite or virus in culture; format: cell-based, Hepatitis C virus
Experimental: (§1) Huh7.5 cells are grown in Dulbecco's modified essential media (DMEM), 10% fetal bovine serum (FBS), 1% penicillin-streptomycin (pen-strep), 1% Non-essential amino acids (NEAA) in a 5% CO2 incubator at 37° C. Huh7.5 cells are seeded at 1×10^4 cells per well into 96-well plates according to Southern Research Institute standard format. Test articles are serially diluted with DMEM plus 5% FBS. The diluted compound in the amount of 50 μl is mixed with equal volume of cell culture-derived HCV (HCVcc), then applied to appropriate wells in the plate. Human interferon alpha-2b (rIFNα-2b) and/or Sofosbuvir are included as a positive control. After 72 hr incubation at 37° C., the cells are lysed for measurement of luciferase activity using Renilla Luciferase Assay System (Promega) according to manufacturer's instruction. The number of cells in each well is determined by CytoTox-1 reagent (Promega).

[2] = HCV replicon assay, cell viability (CytoTox-1); conditions: human, Huh7 hepatoma cells containing a subgenomic HCV replicon
Experimental: We use the subgenomic HCV replicons of genotype 1a (H77 strain), 1b (Con1 strain), and 2a (JFH-1 strain), which are Huh7 human hepatoma cell lines that contains an HCV replicon.
Briefly, the replicon cells are plated at 5,000 cells/well into 96-well plates that are dedicated for the analysis of cell numbers (cytotoxicity) or antiviral activity. On the following day, samples are diluted with assay media and added to the appropriate wells. Cells are processed 72 hours later when the cells are still sub-confluent. […] The concentration of drug that reduces cell viability is assessed by the fluorometric CytoTox-1 cell proliferation assay (Promega), (expressed as cell numbers). […] Where applicable EC50 (concentration inhibiting HCV replicon by 50%), EC90 (concentration inhibiting HCV replicon by 90%), CC50 (concentration decreasing cell viability by 50%), CC90 (concentration decreasing cell viability by 90%) and SI (selectivity indices: CC50/EC50 and CC90/EC90) values are derived.

[3] = Infectious HCVcc assay, cell viability (CytoTox-1); conditions: human, Huh7.5 cells infected with cell culture-derived HCV (HCVcc)
Experimental: as §1

`CC(=O)Oc1cc2c(s1)CCN(C(C(=O)C1CC1)c1ccccc1F)C2.Cl` (racemic) [Prasugrel, 5-[(1RS)-2-cyclopropyl-1-(2-fluorophenyl)-2-oxoethyl]-4,5,6,7-tetrahydrothieno[3,2-c]pyridin-2-yl acetate hydrochloride] gave a pEC50 (HCV GT1b CON-1 replicon; Hepatitis C virus, GT1B, concentration inhibiting HCV replicon by 50%, 72 hours) of 4.33, a Selectivity index (HCV GT1b CON-1 replicon; CC50/EC50) of 1.88 and a pEC50 ([1]; Hepatitis C virus, 72 h) of 5.01. It also gave a Selectivity index ([1]; In vitro HCVcc assay, CC50/EC50) greater than 10.3, a CC50 at 72 h [2] of 88.5 µM and a CC50 at 72 h [3] greater than 100 µM.
